ChEMBL document CHEMBL2203234, “Optimisation of imidazole compounds as selective TAAR1 agonists: discovery of RO5073012” (Bioorg Med Chem Lett, 2012)

How the values were obtained:
[1] = molecular target: C-X-C chemokine receptor type 4 (Homo sapiens) (UniProt P61073); assay: Inhibition of human CXCR4 receptor at 10 uM by CEREP assay
[2] = molecular target: C-C chemokine receptor type 1 (Homo sapiens) (UniProt P32246); assay: Inhibition of human CCR1 receptor at 10 uM by CEREP assay
[3] = molecular target: C-C chemokine receptor type 2 (Homo sapiens) (UniProt P41597); assay: Inhibition of human CCR2 receptor at 10 uM by CEREP assay
[4] = molecular target: Growth hormone secretagogue receptor type 1 (Homo sapiens) (UniProt Q92847); assay: Inhibition of human Ghrelin receptor at 10 uM by CEREP assay
[5] = molecular target: Histamine H2 receptor (Homo sapiens) (UniProt P25021); assay: Inhibition of human H2 receptor at 10 uM by CEREP assay
[6] = organism: Homo sapiens; assay: Inhibition of human I2 receptor at 10 uM by CEREP assay
[7] = molecular target: Leukotriene B4 receptor 1 (Homo sapiens) (UniProt Q15722); assay: Inhibition of human LTB4 receptor at 10 uM by CEREP assay
[8] = molecular target: Melanocyte-stimulating hormone receptor (Homo sapiens) (UniProt Q01726); assay: Inhibition of MC1 receptor at 10 uM by CEREP assay
[9] = molecular target: Melanocortin receptor 4 (Homo sapiens) (UniProt P32245); assay: Inhibition of human MC4 receptor at 10 uM by CEREP assay
[10] = Inhibition of ML1 receptor at 10 uM by CEREP assay
[11] = molecular target: Motilin receptor (Homo sapiens) (UniProt O43193); assay: Inhibition of human Motilin receptor at 10 uM by CEREP assay
[12] = molecular target: Neuropeptide Y receptor type 2 (Homo sapiens) (UniProt P49146); assay: Inhibition of human Y2 receptor at 10 uM by CEREP assay
[13] = molecular target: Neurotensin receptor type 1 (Homo sapiens) (UniProt P30989); assay: Inhibition of human NT1 receptor at 10 uM by CEREP assay
[14] = organism: Homo sapiens; assay: Inhibition of human DOP/delta 2 receptor at 10 uM by CEREP assay
[15] = molecular target: Pituitary adenylate cyclase-activating polypeptide type I receptor (Homo sapiens) (UniProt P41586); assay: Inhibition of human PAC1 receptor at 10 uM by CEREP assay
[16] = molecular target: Thromboxane A2 receptor (Homo sapiens) (UniProt P21731); assay: Inhibition of human TXA2/PGH2 receptor at 10 uM by CEREP assay
[17] = Inhibition of P2Y receptor at 10 uM by CEREP assay
[18] = molecular target: 5-hydroxytryptamine receptor 1B (Homo sapiens) (UniProt P28222); assay: Inhibition of 5-HT1B receptor at 10 uM by CEREP assay
[19] = molecular target: 5-hydroxytryptamine receptor 3A (Homo sapiens) (UniProt P46098); assay: Inhibition of human 5-HT3 receptor at 10 uM by CEREP assay
[20] = molecular target: 5-hydroxytryptamine receptor 6 (Homo sapiens) (UniProt P50406); assay: Inhibition of human 5-HT6 receptor at 10 uM by CEREP assay
[21] = molecular target: 5-hydroxytryptamine receptor 7 (Homo sapiens) (UniProt P34969); assay: Inhibition of human 5-HT7 receptor at 10 uM by CEREP assay
[22] = Inhibition of sigma receptor at 10 uM by CEREP assay
[23] = molecular target: Progesterone receptor (Homo sapiens) (UniProt P06401); assay: Inhibition of human progesterone receptor at 10 uM by CEREP assay
[24] = molecular target: Androgen receptor (Homo sapiens) (UniProt P10275); assay: Inhibition of human androgen receptor at 10 uM by CEREP assay
[25] = molecular target: Vasopressin V1a receptor (Homo sapiens) (UniProt P37288); assay: Inhibition of human V1a receptor at 10 uM by CEREP assay
[26] = Inhibition of L-type Ca2+ channel DHP site at 10 uM by CEREP assay
[27] = Inhibition of SKca channel at 10 uM by CEREP assay
[28] = molecular target: Phosphodiesterase 6 (Homo sapiens) (UniProt Q13956+P18545+P35913+O43924+P16499+P51160); assay: Inhibition of human PDE6 at 10 uM by CEREP assay; type: protein assay
[29] = molecular target: 4-aminobutyrate aminotransferase, mitochondrial (Homo sapiens) (UniProt P80404); assay: Inhibition of GABA transaminase at 10 uM by CEREP assay
[30] = test system: CHL; assay: Selectivity ratio of Ki for human adrenergic alpha2A receptor expressed in CHL cells to Ki for human TAAR1 receptor; type: cell-based
[31] = Half life in mouse at 7.1 mg/kg, po; type: ADME, organism-based; parameters: dose 7.1 mg/kg, route oral; settings: in vivo
[32] = Half life in rat at 10 mg/kg, po; type: ADME, organism-based; parameters: dose 10 mg/kg, route oral; settings: in vivo
[33] = Inhibition of GABA receptor at 10 uM by CEREP assay
[34] = molecular target: D(1B) dopamine receptor (Homo sapiens) (UniProt P21918); assay: Inhibition of human D5 receptor at 10 uM by CEREP assay
[35] = molecular target: Endothelin-1 receptor (Homo sapiens) (UniProt P25101); assay: Inhibition of human ETA receptor at 10 uM by CEREP assay
[36] = molecular target: D(3) dopamine receptor (Homo sapiens) (UniProt P35462); assay: Inhibition of human D3 receptor at 10 uM by CEREP assay
[37] = molecular target: Gastrin/cholecystokinin type B receptor (Homo sapiens) (UniProt P32239); assay: Inhibition of human CCKB receptor at 10 uM by CEREP assay
[38] = molecular target: Cannabinoid receptor 1 (Homo sapiens) (UniProt P21554); assay: Inhibition of human CB1 receptor at 10 uM by CEREP assay
[39] = molecular target: B2 bradykinin receptor (Homo sapiens) (UniProt P30411); assay: Inhibition of human B2 receptor at 10 uM by CEREP assay
[40] = molecular target: Beta-2 adrenergic receptor (Homo sapiens) (UniProt P07550); assay: Inhibition of human beta 2 adrenergic receptor at 10 uM by CEREP assay
[41] = molecular target: Type-1 angiotensin II receptor (Homo sapiens) (UniProt P30556); assay: Inhibition of human AT1 receptor at 10 uM by CEREP assay
[42] = molecular target: Beta-1 adrenergic receptor (Homo sapiens) (UniProt P08588); assay: Inhibition of human beta 1 adrenergic receptor at 10 uM by CEREP assay
[43] = Inhibition of alpha 2 adrenergic receptor at 10 uM by CEREP assay
[44] = molecular target: Glutamate [NMDA] receptor (Homo sapiens) (UniProt Q05586+Q12879+Q13224+O15399+O60391+Q14957+Q8TCU5); assay: Inhibition of human NMDA receptor at 10 uM by CEREP assay
[45] = molecular target: Adenosine receptor A1 (Homo sapiens) (UniProt P30542); assay: Inhibition of human A1 receptor at 10 uM by CEREP assay

D(1B) dopamine receptor (Homo sapiens), sequence (P21918 whole entry): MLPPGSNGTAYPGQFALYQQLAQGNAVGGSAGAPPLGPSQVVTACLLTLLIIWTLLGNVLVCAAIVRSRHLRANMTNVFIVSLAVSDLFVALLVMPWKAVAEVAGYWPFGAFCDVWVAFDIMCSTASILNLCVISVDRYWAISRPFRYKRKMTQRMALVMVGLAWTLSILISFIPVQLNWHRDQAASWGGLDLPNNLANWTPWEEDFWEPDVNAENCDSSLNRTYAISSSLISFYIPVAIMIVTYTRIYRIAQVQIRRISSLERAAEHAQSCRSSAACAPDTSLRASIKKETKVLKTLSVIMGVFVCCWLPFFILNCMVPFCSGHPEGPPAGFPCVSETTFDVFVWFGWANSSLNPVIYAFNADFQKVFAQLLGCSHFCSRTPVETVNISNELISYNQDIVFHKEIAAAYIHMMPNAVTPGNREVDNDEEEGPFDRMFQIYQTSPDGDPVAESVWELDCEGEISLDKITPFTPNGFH
5-hydroxytryptamine receptor 7 (Homo sapiens), sequence (P34969 whole entry): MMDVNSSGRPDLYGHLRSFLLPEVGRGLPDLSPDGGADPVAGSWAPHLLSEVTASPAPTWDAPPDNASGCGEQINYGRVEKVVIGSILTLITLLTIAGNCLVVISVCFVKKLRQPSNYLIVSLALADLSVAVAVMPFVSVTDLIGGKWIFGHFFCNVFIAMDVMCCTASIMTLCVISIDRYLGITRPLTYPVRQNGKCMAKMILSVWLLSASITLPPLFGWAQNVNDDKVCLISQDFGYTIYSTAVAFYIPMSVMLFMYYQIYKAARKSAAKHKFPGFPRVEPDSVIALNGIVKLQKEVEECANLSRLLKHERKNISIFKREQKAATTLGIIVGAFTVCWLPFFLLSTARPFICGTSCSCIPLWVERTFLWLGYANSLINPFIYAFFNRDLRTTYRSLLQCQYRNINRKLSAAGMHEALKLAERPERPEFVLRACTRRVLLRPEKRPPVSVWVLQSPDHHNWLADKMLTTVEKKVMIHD
Thromboxane A2 receptor (Homo sapiens), sequence (P21731 whole entry): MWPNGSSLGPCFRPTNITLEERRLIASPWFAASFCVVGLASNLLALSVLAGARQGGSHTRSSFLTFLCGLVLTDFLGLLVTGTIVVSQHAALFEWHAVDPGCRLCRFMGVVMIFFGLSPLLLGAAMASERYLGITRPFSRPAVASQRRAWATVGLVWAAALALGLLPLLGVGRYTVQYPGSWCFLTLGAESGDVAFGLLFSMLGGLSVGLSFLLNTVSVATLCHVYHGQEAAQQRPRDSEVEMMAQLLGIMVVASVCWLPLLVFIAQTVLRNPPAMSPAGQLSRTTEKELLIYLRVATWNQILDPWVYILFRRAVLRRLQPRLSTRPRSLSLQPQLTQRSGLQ
5-hydroxytryptamine receptor 1B (Homo sapiens), sequence (P28222 whole entry): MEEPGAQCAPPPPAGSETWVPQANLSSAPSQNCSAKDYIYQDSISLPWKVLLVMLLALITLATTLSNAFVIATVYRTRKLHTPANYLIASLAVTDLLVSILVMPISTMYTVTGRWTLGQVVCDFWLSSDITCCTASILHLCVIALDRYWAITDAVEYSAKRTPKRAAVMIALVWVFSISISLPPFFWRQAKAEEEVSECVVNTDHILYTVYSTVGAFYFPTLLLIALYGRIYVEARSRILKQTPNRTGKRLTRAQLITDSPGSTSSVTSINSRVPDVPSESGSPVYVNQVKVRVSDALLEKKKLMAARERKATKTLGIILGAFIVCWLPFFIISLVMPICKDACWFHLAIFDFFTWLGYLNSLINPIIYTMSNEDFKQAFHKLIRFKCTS
C-C chemokine receptor type 2 (Homo sapiens), sequence (P41597 whole entry, looked up): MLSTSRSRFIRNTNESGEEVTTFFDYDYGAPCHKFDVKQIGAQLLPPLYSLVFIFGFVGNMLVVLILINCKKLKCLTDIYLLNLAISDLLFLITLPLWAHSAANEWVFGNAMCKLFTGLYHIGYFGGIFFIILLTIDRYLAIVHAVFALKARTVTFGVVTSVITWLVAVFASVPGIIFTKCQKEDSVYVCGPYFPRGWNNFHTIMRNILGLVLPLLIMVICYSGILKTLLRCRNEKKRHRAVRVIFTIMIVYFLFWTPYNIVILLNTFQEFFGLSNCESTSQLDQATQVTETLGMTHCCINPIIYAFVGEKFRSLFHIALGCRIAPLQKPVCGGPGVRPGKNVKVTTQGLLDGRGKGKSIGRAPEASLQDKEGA
Melanocortin receptor 4 (Homo sapiens), sequence (P32245 whole entry): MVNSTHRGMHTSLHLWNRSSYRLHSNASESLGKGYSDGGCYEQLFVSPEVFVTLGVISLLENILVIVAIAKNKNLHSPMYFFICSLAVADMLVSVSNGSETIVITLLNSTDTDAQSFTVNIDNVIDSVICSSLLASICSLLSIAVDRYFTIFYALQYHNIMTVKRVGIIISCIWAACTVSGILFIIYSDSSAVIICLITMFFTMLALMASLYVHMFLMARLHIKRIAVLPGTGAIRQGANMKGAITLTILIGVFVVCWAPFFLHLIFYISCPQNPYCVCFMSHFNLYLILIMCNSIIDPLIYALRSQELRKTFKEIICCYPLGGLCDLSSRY
Progesterone receptor (Homo sapiens), sequence (P06401 whole entry): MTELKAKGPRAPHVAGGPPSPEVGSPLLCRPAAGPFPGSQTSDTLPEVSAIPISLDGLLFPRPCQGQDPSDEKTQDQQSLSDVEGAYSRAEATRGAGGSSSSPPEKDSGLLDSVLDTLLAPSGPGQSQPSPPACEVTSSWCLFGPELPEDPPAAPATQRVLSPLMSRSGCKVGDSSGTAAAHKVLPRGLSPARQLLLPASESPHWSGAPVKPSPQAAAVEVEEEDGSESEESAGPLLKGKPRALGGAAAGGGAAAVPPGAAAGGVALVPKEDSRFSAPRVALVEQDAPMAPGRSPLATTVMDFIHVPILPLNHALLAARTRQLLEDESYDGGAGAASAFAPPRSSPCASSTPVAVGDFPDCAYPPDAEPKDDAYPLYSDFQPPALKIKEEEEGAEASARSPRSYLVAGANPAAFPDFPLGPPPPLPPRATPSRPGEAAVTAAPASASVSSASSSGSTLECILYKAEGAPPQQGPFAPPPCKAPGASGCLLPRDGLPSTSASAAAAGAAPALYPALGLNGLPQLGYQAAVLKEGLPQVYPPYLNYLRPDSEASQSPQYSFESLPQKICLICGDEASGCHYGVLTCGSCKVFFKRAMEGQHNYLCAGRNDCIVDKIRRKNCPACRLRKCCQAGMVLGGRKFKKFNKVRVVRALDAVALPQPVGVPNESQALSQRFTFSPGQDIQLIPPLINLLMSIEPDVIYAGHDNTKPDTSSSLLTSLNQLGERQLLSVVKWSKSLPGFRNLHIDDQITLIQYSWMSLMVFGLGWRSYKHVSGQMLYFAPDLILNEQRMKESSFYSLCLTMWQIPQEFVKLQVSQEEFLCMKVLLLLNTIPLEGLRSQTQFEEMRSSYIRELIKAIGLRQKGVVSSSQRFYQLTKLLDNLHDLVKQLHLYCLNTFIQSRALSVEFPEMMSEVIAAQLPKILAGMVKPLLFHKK
Pituitary adenylate cyclase-activating polypeptide type I receptor (Homo sapiens), sequence (P41586 21-468 limits assumed): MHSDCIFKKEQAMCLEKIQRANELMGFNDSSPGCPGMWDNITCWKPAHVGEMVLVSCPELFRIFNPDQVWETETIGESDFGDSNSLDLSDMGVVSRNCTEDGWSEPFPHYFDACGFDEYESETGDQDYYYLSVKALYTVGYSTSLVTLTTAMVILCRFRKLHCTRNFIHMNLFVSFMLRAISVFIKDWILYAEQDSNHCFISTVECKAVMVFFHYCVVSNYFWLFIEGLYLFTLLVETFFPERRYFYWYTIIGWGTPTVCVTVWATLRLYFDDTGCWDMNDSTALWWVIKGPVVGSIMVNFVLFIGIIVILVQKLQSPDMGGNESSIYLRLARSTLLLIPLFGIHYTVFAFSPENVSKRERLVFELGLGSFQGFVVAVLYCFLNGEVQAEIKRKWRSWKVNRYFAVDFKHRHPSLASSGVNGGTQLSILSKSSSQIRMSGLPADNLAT
Histamine H2 receptor (Homo sapiens), sequence (P25021 whole entry): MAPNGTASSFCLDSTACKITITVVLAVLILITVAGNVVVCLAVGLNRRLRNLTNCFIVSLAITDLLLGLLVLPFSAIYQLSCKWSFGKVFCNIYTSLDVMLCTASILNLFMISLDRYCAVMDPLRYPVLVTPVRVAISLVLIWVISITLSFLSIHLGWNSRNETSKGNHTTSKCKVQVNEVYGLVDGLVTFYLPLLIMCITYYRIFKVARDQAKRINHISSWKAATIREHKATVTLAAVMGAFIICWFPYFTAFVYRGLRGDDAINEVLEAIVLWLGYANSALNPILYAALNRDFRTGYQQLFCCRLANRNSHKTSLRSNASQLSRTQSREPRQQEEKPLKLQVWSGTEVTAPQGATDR
B2 bradykinin receptor (Homo sapiens), sequence (P30411 whole entry): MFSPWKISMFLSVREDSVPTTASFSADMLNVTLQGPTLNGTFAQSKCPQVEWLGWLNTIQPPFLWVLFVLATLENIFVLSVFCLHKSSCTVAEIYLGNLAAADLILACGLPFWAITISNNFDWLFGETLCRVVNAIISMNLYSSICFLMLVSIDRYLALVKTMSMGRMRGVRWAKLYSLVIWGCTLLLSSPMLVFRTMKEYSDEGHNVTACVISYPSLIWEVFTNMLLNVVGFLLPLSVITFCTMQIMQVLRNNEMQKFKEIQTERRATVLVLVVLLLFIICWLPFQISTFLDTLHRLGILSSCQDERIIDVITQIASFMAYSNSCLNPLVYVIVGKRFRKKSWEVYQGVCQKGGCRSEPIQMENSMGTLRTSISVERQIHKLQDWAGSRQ
C-C chemokine receptor type 1 (Homo sapiens), sequence (P32246 whole entry): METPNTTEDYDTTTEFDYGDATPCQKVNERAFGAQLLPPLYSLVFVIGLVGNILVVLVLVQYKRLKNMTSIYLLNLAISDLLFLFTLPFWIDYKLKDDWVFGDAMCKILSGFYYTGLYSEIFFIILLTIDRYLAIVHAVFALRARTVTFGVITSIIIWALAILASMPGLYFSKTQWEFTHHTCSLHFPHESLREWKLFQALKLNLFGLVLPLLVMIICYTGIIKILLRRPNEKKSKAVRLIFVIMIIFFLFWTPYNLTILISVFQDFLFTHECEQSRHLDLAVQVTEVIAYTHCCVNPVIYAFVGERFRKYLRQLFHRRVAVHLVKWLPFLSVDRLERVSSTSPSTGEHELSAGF

With CCc1cccc(CC)c1Cc1ncc[nH]1 as the molecule, how does the inhibition [1] read?
Its inhibition is 11%.

And the inhibition [2]?
Its inhibition is -1%.

What about the inhibition [3] of the same molecule?
The inhibition was 12%.

What about the inhibition [4] of the same molecule?
The inhibition was 3%.

And the inhibition [5]?
The inhibition was 4%.

And the inhibition [6]?
The inhibition was 59%.

What about the inhibition [7] of the same molecule?
Its inhibition is 5%.

What about the inhibition [8] of the same molecule?
Its inhibition is 2%.

What about the inhibition [9] of the same molecule?
The inhibition was -4%.

And the inhibition [10]?
Its inhibition is 32%.

What about the inhibition [11] of the same molecule?
The inhibition was 4%.

What about the inhibition [12] of the same molecule?
The inhibition was 15%.

What about the inhibition [13] of the same molecule?
Its inhibition is -3%.

And the inhibition [14]?
The inhibition was 7%.

What about the inhibition [15] of the same molecule?
The inhibition was 21%.

What about the inhibition [16] of the same molecule?
The inhibition was 7%.

And the inhibition [17]?
Its inhibition is 1%.

What about the inhibition [18] of the same molecule?
The inhibition was 18%.

What about the inhibition [19] of the same molecule?
Its inhibition is -6%.

What about the inhibition [20] of the same molecule?
The inhibition was 9%.

And the inhibition [21]?
The inhibition was 54%.

And the inhibition [22]?
The inhibition was 14%.

And the inhibition [23]?
Its inhibition is -2%.

And the inhibition [24]?
Its inhibition is 2%.

And the inhibition [25]?
Its inhibition is 1%.

And the inhibition [26]?
Its inhibition is 1%.

And the inhibition [27]?
The inhibition was 0%.

What about the inhibition [28] of the same molecule?
Its inhibition is 6%.

And the inhibition [29]?
Its inhibition is 17%.

What about the Ratio Ki [30] of the same molecule?
Its Ratio Ki is 100.

And the half-life [31]?
The half-life was 0.95 h.

What about the half-life [32] of the same molecule?
The half-life was 4.9 h.

What about the inhibition [33] of the same molecule?
Its inhibition is -10%.

And the inhibition [34]?
Its inhibition is 17%.

What about the inhibition [35] of the same molecule?
The inhibition was -3%.

And the inhibition [36]?
The inhibition was 10%.

What about the inhibition [37] of the same molecule?
Its inhibition is 6%.

And the inhibition [38]?
The inhibition was 4%.

And the inhibition [39]?
The inhibition was 3%.

What about the inhibition [40] of the same molecule?
Its inhibition is 6%.

And the inhibition [41]?
Its inhibition is 2%.

And the inhibition [42]?
Its inhibition is 5%.

And the inhibition [43]?
The inhibition was 73%.

What about the inhibition [44] of the same molecule?
The inhibition was 2%.

What about the inhibition [45] of the same molecule?
The inhibition was 1%.
